In patent publication US20240315993A1, “ANTIPARASITIC COMPOUNDS” (Intervet Inc., priority 2021, published 2024) one finds inhibition data, which are given here for one compound.

Each structure is given as a SMILES string. Bounds are passed on as bounds.

The test system of assay [1] is Adult fleas (Ctenocephalides felis). Put plainly: Flea feeding assay. Particulars: 48 h, read-out: flea inhibition (% of dead+damaged fleas). The protocol: Adult fleas (Ctenocephalides felis) of defined age were fed on artificial membranes with blood spiked with declining concentrations of a test compound (dissolved in a DMSO-emulsifier-blood mixture). After approximately 48 hours of continuous feeding, flea inhibition (i.e., % of dead+damaged fleas per test concentration) was assessed. The vitality of used parasites was confirmed in negative control groups (i.e., an untreated control and a solvent control).

Assay [2] has as its system Rhipicephalus microplus tick larvae. Put plainly: Tick larvae contact assay. Conditions: read-out: Tick inhibition (% of damage+dead ticks). The protocol: Tick larvae (Rhipicephalus microplus) were immersed for approximately 3 minutes in declining concentrations of a test compound (dissolved in a DMSO-emulsifier-deionized water mixture). Tick inhibition (% of damage+dead ticks per test concentration) was assessed approximately 24 hours after contact exposure. The vitality of used parasites was confirmed in negative control groups (i.e. an untreated control and a solvent control).

One may read the inhibition as the share of the control response that was lost under treatment.

With `O=C(Nc1ccc(F)cc1F)c1cc(NC(=O)[C@H]2[C@H](c3ccc(F)c(Cl)c3)C2(Cl)Cl)ccc1Cl` [Compound 197], the inhibition at 1 ppm in assay [1] came to 80%. Moreover, in assay [2], the inhibition at 25 µM was at least 80%, the inhibition at 49 µM was determined as 80%, the inhibition at 388 µM stood at 80% and the inhibition at 100 ppm amounted to 80%.
